Assays:
[1] = test system: BV-2 microglial cells; test: Superoxide production in microglial cells; type: cell-based, mouse; settings: co-incubated with NaPB 6 h, then LPS 10 min
Description: Results represent three independent experiments.
Superoxide measurements: Superoxide production was detected by LumiMax™ Superoxide Anion Detection Kit (Stratagene) as described by us (30).

[2] = test system: NF-κB; test: Transcriptional activity of NF-κB (PBIIX-Luc reporter) in BV-2 microglial cells; type: cell-based, mouse; settings: co-incubated with NaPB 6 h
Description: Transcriptional activity of NF-κB: Transcriptional activity of NF-κB was assayed. […] After 24 h of transfection, […], and firefly and Renilla luciferase activities were recorded in a TD-20/20 Luminometer (Turner Designs, Sunnyvale, Calif.) by analyzing total cell extract according to standard instructions provided in the Dual Luciferase Kit (Promega), Relative luciferase activity of cell extracts was typically represented as (firefly luciferase value/Renilta luciferase value)×10^−3.

[3] = test system: primary mouse microglia; test: LPS-induced NO (nitrite) production in primary mouse microglia; type: cell-based; settings: other HDAC inhibitors, different concentrations, 6 h preincubation, LPS 24 h
Description: Primary mouse microglia were treated with different concentrations of NaPB for 6 h followed by stimulation with LPS under serum-free condition. After 24 h of stimulation, concentrations of nitrite were measured in supernatants (A) and the level of iNOS protein was monitored in cells by Western blot (B). […] After 5 h of stimulation, the expression of iNOS mRNA was monitored by semi-quantitative RT-PCR (C). Cells preinctibated with different concentration of trichostatin A (TSA) and sodium butyrate (NaBu) for 6 h were stimulated with LPS for 24 h under serum-free condition followed by monitoring the level of nitrite in supernatants (p). […] Primary human astroglia isolated from fetal brain tissues were treated with different concentrations of NaPB for 6 h followed by stimulation with IL-1β under serum-free condition. After 48 h of stimulation, concentrations of nitrite (E) were measured in supernatants. Human astroglia plated at 70-80% confluence in 12-well plates were co-transfected with 0.25 μg of phiNOS(7.2)Luc and 12.5 ng of pRL-TK using the Lipofectamine-Plus (Invitrogen). Twenty-four h after transfection, cells received NaPB. After 6 h of incubation, cells were stimulated with IL-1β (20 ng/ml) for 12 h. Firefly (ff-Luc) and Renilla (r-Luc) luciferase activities were obtained by analyzing the total cell extract (F).
Activated microglia and astroglia are known to produce excessive amount of NO having the potential of damaging neurons in neurodegenerative disorders. We investigated the effect of NaPB on the expression of iNOS in microglia. LPS is a prototype inducer of various proinflammatory molecules in different cell types including mouse microglia. Therefore, primary mouse microglia preincubated with different doses of NaPB for 6 h were stimulated with LPS under serum-free condition. […] We used trichostatin A (TSA) and sodium butyrate (NaBu) for this purpose.
Isolation of Mouse Microglia: Microglia were isolated from mixed glial cultures. Briefly, on day 7-9, the mixed glial cultures were washed three times with Dulbecco's modified Eagle's medium/F-12 and subjected to shaking at 240 rpm for 2 h at 37° C. on a rotary shaker. The floating cells were washed and seeded on to plastic tissue culture flasks and incubated at 37° C. for 1 h. The attached cells were seeded onto new plates for further studies. […] Mouse BV-2 microglial cells (kind gift from Virginia Bocchini of Universityof Perugia) were also maintained and induced as indicated above.

[4] = test system: cholesterol; test: Serum cholesterol in male C57/BL6 mice; type: in vivo, mouse; settings: 1 mg/kg body wt/d via gavage, 7 d
Description: Mice (6-8 wk old) were treated with NaPB (200 mg/kg body wt/d) and pravastatin (1 mg/kg body wt/d) separately via gavage for 7 d followed by quantification of cholesterol in serum using a simple fluorometric method.
Intermediates of the mevalonate pathway play a role in the expression of iNOS and proinflammatory cytokines in glial cells. End product of the mevalonate pathway is cholesterol and therefore, we investigated if NaPB had any effect on the level of cholesterol in vivo in mice.
Assay of cholesterol in serum: Total cholesterol was quantified irr serum by using an Amplex Red Cholesterol Assay kit from Invitrogen. Briefly, cholesterol was oxidized by cholesterol oxidase to yield H2O2, which then reacted with 10-acetyl-3,7 dihydroxyphenoxazine (Amplex Red). In the presence of horseradish peroxidase (HRP), this Amplex Red:H2O2 complex produced highly fluorescent resorufin, which was detected by fluorometry.

| Compound | effect on NaPB-mediated inhibition of superoxide production [1] | effect on NaPB-mediated inhibition of NF-κB activation [2] | effect on LPS-induced production of NO [3] | reduction of the level of cholesterol in serum [4] [%] |
| --- | --- | --- | --- | --- |
| COC1=C(OC)C(=O)C(C/C=C(\C)CC/C=C(\C)CC/C=C(\C)CC/C=C(\C)CC/C=C(\C)CC/C=C(\C)CC/C=C(\C)CC/C=C(\C)CC/C=C(\C)CCC=C(C)C)=C(C)C1=O [coenzyme Q] | had no effect | had no effect |  |  |
| CCCC(=O)[O-].[Na+] [NaBu, sodium butyrate] |  |  | stimulated |  |
| CC(/C=C/C(=O)NO)=C\[C@@H](C)C(=O)c1ccc(N(C)C)cc1 [TSA, trichostatin A] |  |  | attenuated |  |
| CC(C)=CCC/C(C)=C/CC/C(C)=C/CC/C(C)=C/COP(=O)(O)OP(=O)(O)O [GGPP, geranylgeranyl pyrophosphate] | abolished the inhibitory effect of NaPB | abrogated the inhibitory effect of NaPB |  |  |
| CC(C)CCC[C@@H](C)[C@H]1CC[C@H]2[C@@H]3CC=C4C[C@@H](O)CC[C@]4(C)[C@H]3CC[C@]12C [cholesterol] | had no effect | had no effect |  |  |
| CC[C@H](C)C(=O)O[C@H]1C[C@H](O)C=C2C=C[C@H](C)[C@H](CC[C@@H](O)C[C@@H](O)CC(=O)O)[C@H]21 [pravastatin] |  |  |  | ~29 |
| CC(C)(CO[P@@](=O)(O)O[P@@](=O)(O)OC[C@H]1O[C@@H](n2cnc3c(N)ncnc32)[C@H](O)[C@@H]1OP(=O)(O)O)[C@@H](O)C(=O)NCCC(=O)NCCSC(=O)C[C@@](C)(O)CC(=O)O [HMG-CoA] | abolished the inhibitory effect of NaPB | abrogated the inhibitory effect of NaPB |  |  |
| CC(O)(CCO)CC(=O)O (centres unmarked) [mevalonate] | abolished the inhibitory effect of NaPB | abrogated the inhibitory effect of NaPB |  |  |
| CC(C)=CCC/C(C)=C/CC/C(C)=C/COP(=O)(O)OP(=O)(O)O [FPP, farnesyl pyrophosphate] |  | abrogated the inhibitory effect of NaPB |  |  |
